Data published in US9273058B2 (BRISTOL-MYERS SQUIBB COMPANY, priority 2013, dated 2016).
Where two headings read alike, the source gives them in different places.

How the values were obtained:
CK1δ = CK1δ (Homo sapiens, UniProt P48730); assay: CK1δ kinase assay (Caliper LabChip electrophoretic separation of fluoresceinated peptide substrate and product); assay type: biochemical; conditions: 200 pM CK1δ, 50 μM ATP, 1.5 μM peptide, 22 hours at room temperature
In short: (§1)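 Each reaction was incubated 22 hours at room temperature and terminated with EDTA. Read-out was microfluidic electrophoretic separation of fluoresceinated substrate and phospho-product.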

CK1ε = CK1ε (Homo sapiens, UniProt P49674); assay: CK1ε kinase assay (Caliper LabChip electrophoretic separation of fluoresceinated peptide substrate and product); assay type: biochemical; conditions: 200 pM CK1ε, 50 μM ATP, 1.5 μM peptide, 22 hours at room temperature
Sequence of CK1ε (P49674 whole entry): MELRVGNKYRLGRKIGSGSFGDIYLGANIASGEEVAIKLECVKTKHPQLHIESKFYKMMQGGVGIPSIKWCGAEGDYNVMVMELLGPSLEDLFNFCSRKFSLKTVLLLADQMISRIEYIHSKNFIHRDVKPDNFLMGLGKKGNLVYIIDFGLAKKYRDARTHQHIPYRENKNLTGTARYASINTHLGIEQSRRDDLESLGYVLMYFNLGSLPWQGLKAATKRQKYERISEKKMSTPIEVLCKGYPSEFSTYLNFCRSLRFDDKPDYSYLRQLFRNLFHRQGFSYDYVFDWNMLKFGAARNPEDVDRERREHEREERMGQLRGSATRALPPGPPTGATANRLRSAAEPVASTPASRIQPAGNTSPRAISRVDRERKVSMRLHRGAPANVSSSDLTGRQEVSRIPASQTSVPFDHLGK
In short: as §1

Sequence of CK1δ (P48730 whole entry): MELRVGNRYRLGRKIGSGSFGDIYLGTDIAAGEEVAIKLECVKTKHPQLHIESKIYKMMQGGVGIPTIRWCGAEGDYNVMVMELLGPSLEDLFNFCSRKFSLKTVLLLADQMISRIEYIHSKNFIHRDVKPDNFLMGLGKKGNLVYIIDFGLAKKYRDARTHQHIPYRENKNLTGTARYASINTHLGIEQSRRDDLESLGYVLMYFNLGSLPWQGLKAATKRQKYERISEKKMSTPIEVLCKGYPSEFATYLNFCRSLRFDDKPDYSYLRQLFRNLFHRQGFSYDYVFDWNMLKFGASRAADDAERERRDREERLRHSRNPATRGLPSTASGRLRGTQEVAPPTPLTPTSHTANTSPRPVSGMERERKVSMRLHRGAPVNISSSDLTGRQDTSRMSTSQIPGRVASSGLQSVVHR

| IC50 (CK1δ; read-out: CK1δ) [nM] | IC50 (CK1δ; read-out: CK1δ IC50 range) [nM] | IC50 (CK1ε; read-out: CK1ε) [nM] | IC50 (CK1ε; read-out: CK1ε IC50 range) [nM] | SMILES |
| --- | --- | --- | --- | --- |
| 83.9 | 10 to 100 | 156 | 100 to 2000 | CC(C)(C)NC(=O)N1CCn2nc(-c3cccc(C(F)(F)F)c3)c(C(N)=O)c2C1 [Compound 110, N^5-(tert-Butyl)-2-(3-(trifluoromethyl)phenyl)-6,7-dihydropyrazolo[1,5-a] pyrazine-3,5(4H)-dicarboxamide] |
|  | 0.01 to 10 |  | 0.01 to 10 | CC(F)(F)C(C)(C)NC(=O)N1CCn2nc(-c3ccc(F)c(Cl)c3)c(C(N)=O)c2C1 [Compound 188, 2-(3-Chloro-4-fluorophenyl)-N^5-(3,3-difluoro-2-methylbutan-2-yl)-6,7-dihydropyrazolo[1,5-a] pyrazine-3,5(4H)-dicarboxamide] |
|  | 100 to 2000 |  | 100 to 2000 | CC(C)(C)NC(=O)N1CCn2nc(-c3cnc(N4CCCC4)nc3)c(C(N)=O)c2C1 [Compound 146, N^5-(tert-Butyl)-2-(2-(pyrrolidin-1-yl)pyrimidin-5-yl)-6,7-dihydropyrazolo[1,5-a]pyrazine-3,5(4H)-dicarboxamide] |
| 1050 | 100 to 2000 | 1820 | 100 to 2000 | CC(C)(C)NC(=O)N1CCn2nc(-c3cn[nH]c3)c(C(N)=O)c2C1 [Compound 145, N^5-(tert-Butyl)-2-(1H-pyrazol-4-yl)-6,7-dihydropyrazolo[1,5-a] pyrazine-3,5(4H)-dicarboxamide] |
|  | 0.01 to 10 |  | 0.01 to 10 | NC(=O)c1c(-c2ccc(Cl)c(Cl)c2)nn2c1CN(C(=O)NC1CC3(C1)CC3(F)F)CC2 (single isomer, unassigned) [Compound 324, 2-(3,4-Dichlorophenyl)-N^5-(1,1-difluorospiro[2.3]hexan-5-yl)-6,7-dihydropyrazolo[1,5-a]pyrazine-3,5(4H)-dicarboxamide] |
|  | 0.01 to 10 |  | 0.01 to 10 | COC12CCC(NC(=O)N3CCn4nc(-c5ccc(F)c(Cl)c5)c(C(N)=O)c4C3)(CC1)C(F)(F)C2 [Compound A61, 2-(3-Chloro-4-fluorophenyl)-N^5-(2,2-difluoro-4-methoxybicyclo[2.2.2]octan-1-yl)-6,7-dihydropyrazolo[1,5-a]pyrazine-3,5(4H)-dicarboxamide] |
| 2.4 | 0.01 to 10 | 7.2 | 0.01 to 10 | NC(=O)c1c(-c2cccc(F)c2)nn2c1CN(C(=O)NC1CCCCC1)CC2 [Compound 6, N^5-Cyclohexyl-2-(3-fluorophenyl)-6,7-dihydropyrazolo[1,5-a]pyrazine-3,5(4H)-dicarboxamide] |
|  | 0.01 to 10 |  | 0.01 to 10 | NC(=O)c1c(-c2cccc(Cl)c2)nn2c1CN(C(=O)NC1(c3ccc(F)cc3)CC(F)(F)C1)CC2 [Compound 309, 2-(3-Chlorophenyl)-N^5-(3,3-difluoro-1-(4-fluorophenyl)cyclobutyl)-6,7-dihydropyrazolo[1,5-a] pyrazine-3,5(4H)-dicarboxamide] |
|  | 0.01 to 10 |  | 0.01 to 10 | CC1(NC(=O)N2CCn3nc(-c4cc(F)cc(Cl)c4)c(C(N)=O)c3C2)CC(F)(F)C1 [Compound 300, 2-(3-Chloro-5-fluorophenyl)-N^5-(3,3-difluoro-1-methylcyclobutyl)-6,7-dihydropyrazolo[1,5-a]pyrazine-3,5(4H)-dicarboxamide] |
| 18.1 | 10 to 100 | 19.8 | 10 to 100 | CC(C)(C)NC(=O)N1Cc2c(C(N)=O)c(-c3ccc(F)c(Cl)c3)nn2[C@H]2COC[C@H]21 [Compound 352, (5aS,8aR)—N^5-(tert-Butyl)-2-(3-chloro-4-fluorophenyl)-5a,6,8,8a-tetrahydrofuro[3,4-e]pyrazolo[1,5-a]pyrazine-3,5(4H)-dicarboxamide] |
|  | 0.01 to 10 |  | 0.01 to 10 | C[C@@]12C[C@H]3C[C@@](Cl)(C1)C[C@](NC(=O)N1CCn4nc(-c5ccc(Cl)c(Cl)c5)c(C(N)=O)c4C1)(C3)C2 [Compound A93, N^5-((1S,3R,5S,7R)-3-Chloro-5-methyladamantan-1-yl)-2-(3,4-dichlorophenyl)-6,7-dihydropyrazolo[1,5-a]pyrazine-3,5(4H)-dicarboxamide] |
|  | 10 to 100 |  | 100 to 2000 | CC(C)(C)NC(=O)N1CCn2nc(-c3ccc4scnc4c3)c(C(N)=O)c2C1 [Compound 149, 2-(Benzo[d]thiazol-5-yl)-N^5-(tert-butyl)-6,7-dihydropyrazolo[1,5-a] pyrazine-3,5(4H)-dicarboxamide] |
| 34.2 | 10 to 100 | 20.1 | 10 to 100 | CC1(NC(=O)N2Cc3c(C(N)=O)c(-c4ccc(F)c(Cl)c4)nn3CC2C2CC2)CC(F)(F)C1 (single isomer, unassigned) [Compound 349, 2-(3-Chloro-4-fluorophenyl)-6-cyclopropyl-N^5-(3,3-difluoro-1-methylcyclobutyl)-6,7-dihydropyrazolo[1,5-a]pyrazine-3,5(4H)-dicarboxamide] |
|  | 0.01 to 10 |  | 0.01 to 10 | NC(=O)c1c(-c2ccc(F)c(Cl)c2)nn2c1CN(C(=O)NC13CCC(CO)(CC1)CC3)CC2 [Compound A55, 2-(3-Chloro-4-fluorophenyl)-N^5-(4-(hydroxymethyl)bicyclo[2.2.2]octan-1-yl)-6,7-dihydropyrazolo[1,5-a]pyrazine-3,5(4H)-dicarboxamide] |
|  | 0.01 to 10 |  | 0.01 to 10 | CC(C)(NC(=O)N1CCn2nc(-c3cccc(Cl)c3)c(C(N)=O)c2C1)c1ccc(C#N)cc1 [Compound 173, 2-(3-Chlorophenyl)-N^5-(2-(4-cyanophenyl)propan-2-yl)-6,7-dihydropyrazolo[1,5-a] pyrazine-3,5(4H)-dicarboxamide] |
|  | 0.01 to 10 |  | 0.01 to 10 | CC(C)(C)NC(=O)N1Cc2c(C(N)=O)c(-c3ccc(F)c(Cl)c3)nn2C(CN2CCOCC2)C1 (stereo not shown) [Compound A15, N^5-(tert-Butyl)-2-(3-chloro-4-fluorophenyl)-7-(morpholinomethyl)-6,7-dihydropyrazolo[1,5-a]pyrazine-3,5(4H)-dicarboxamide] |
|  | 0.01 to 10 |  | 0.01 to 10 | N#Cc1ccc(O[C@H]2C[C@H](NC(=O)N3CCn4nc(-c5cccc(Cl)c5)c(C(N)=O)c4C3)C2)cc1 [Compound 267, 2-(3-Chlorophenyl)-N^5-((1r,3r)-3-(4-cyanophenoxy)cyclobutyl)-6,7-dihydropyrazolo[1,5-a] pyrazine-3,5(4H)-dicarboxamide] |
| 70.6 |  | 541 | 100 to 2000 | NC(=O)c1c(-c2cccc(F)c2)nn2c1CN(C(=O)NC1CCN(CCC(F)(F)F)CC1)CC2 [Compound 103, 2-(3-Fluorophenyl)-N^5-(1-(3,3,3-trifluoropropyl)piperidin-4-yl)-6,7-dihydropyrazolo[1,5-a]pyrazine-3,5(4H)-dicarboxamide] |
|  | 0.01 to 10 |  | 0.01 to 10 | CC1(CNC(=O)N2CCn3nc(-c4cccc(Cl)c4)c(C(N)=O)c3C2)CC(F)(F)C1 [Compound 230, 2-(3-Chlorophenyl)-N^5-((3,3-difluoro-1-methylcyclobutyl)methyl)-6,7-dihydropyrazolo[1,5-a] pyrazine-3,5(4H)-dicarboxamide] |
|  | 0.01 to 10 |  | 0.01 to 10 | NC(=O)c1c(-c2ccc(F)c(Cl)c2)nn2c1CN(C(=O)NC1(c3ccc(F)cc3)CC(F)(F)C1)CC2 [Compound 308, 2-(3-Chloro-4-fluorophenyl)-N^5-(3,3-difluoro-1-(4-fluorophenyl)cyclobutyl)-6,7-dihydropyrazolo[1,5-a]pyrazine-3,5(4H)-dicarboxamide] |
|  | 0.01 to 10 |  | 0.01 to 10 | CC(C)(C)NC(=O)N1Cc2c(C(N)=O)c(-c3ccc(Cl)c(Cl)c3)nn2C(C(C)(C)O)C1 (stereo not shown) [Compound A38, N^5-(tert-Butyl)-2-(3,4-dichlorophenyl)-7-(2-hydroxypropan-2-yl)-6,7-dihydropyrazolo[1,5-a]pyrazine-3,5(4H)-dicarboxamide] |
|  | 0.01 to 10 |  | 0.01 to 10 | CC(C)(NC(=O)N1CCn2nc(-c3ccc(Cl)c(Cl)c3)c(C(N)=O)c2C1)C(F)F [Compound 199, 2-(3,4-Dichlorophenyl)-N^5-(1,1-difluoro-2-methylpropan-2-yl)-6,7-dihydropyrazolo[1,5-a]pyrazine-3,5(4H)-dicarboxamide] |
|  | 0.01 to 10 |  | 0.01 to 10 | NC(=O)c1c(-c2ccc(F)c(Cl)c2)nn2c1CN(C(=O)NC1(c3cccnc3)CC(F)(F)C1)CC2 [Compound 311, 2-(3-Chloro-4-fluorophenyl)-N^5-(3,3-difluoro-1-(pyridin-3-yl)cyclobutyl)-6,7-dihydropyrazolo[1,5-a]pyrazine-3,5(4H)-dicarboxamide] |
|  | 0.01 to 10 |  | 0.01 to 10 | CC1(NC(=O)N2Cc3c(C(N)=O)c(-c4ccc(F)c(Cl)c4)nn3C(CF)C2)CC(F)(F)C1 (stereo not shown) [Compound A10, 2-(3-Chloro-4-fluorophenyl)-N^5-(3,3-difluoro-1-methylcyclobutyl)-7-(fluoromethyl)-6,7-dihydropyrazolo[1,5-a]pyrazine-3,5(4H)-dicarboxamide] |
| 8.7 | 0.01 to 10 | 29.3 | 10 to 100 | CC(C)(C)NC(=O)N1CCn2nc(-c3ccc(F)c(F)c3)c(C(N)=O)c2C1 [Compound 106, N^5-(tert-Butyl)-2-(3,4-difluorophenyl)-6,7-dihydropyrazolo[1,5-a] pyrazine-3,5(4H)-dicarboxamide] |
| 122 | 100 to 2000 | 179 | 100 to 2000 | CC(C)(C)NC(=O)N1CCn2nc(-c3cc(F)ccc3F)c(C(N)=O)c2C1 [Compound 151, N^5-(tert-Butyl)-2-(2,5-difluorophenyl)-6,7-dihydropyrazolo[1,5-a] pyrazine-3,5(4H)-dicarboxamide] |
